pEC50: −log10 of the molar value.

The nature of this assay: Positive allosteric modulation of GABA-B receptor in rat brain cortex membranes assessed as increase in GABA-induced [35S]GTPgammaS binding after 60 mins by liquid scintillation counting method. The assay is classed as cell membranes. (In general: GTPγS resists hydrolysis and so accumulates on activated G proteins.)
As to `CC(=O)Nc1cccc(-c2nn(Cc3ccc(Cl)cc3)c(=O)c3c(C(C)C)noc23)c1`, the negative-log EC50 (pEC50) (commonly the EC50 on a negative log10 scale, so that one unit is a factor of ten) was 5.59. The figure for `CNC(=O)c1ccc(OC)c(-c2nn([C@@H](C)c3ccc(Cl)cc3)c(=O)c3c(C)noc23)c1` is 7.64; for `COc1ccc(C(N)=O)cc1-c1nn(C(C)c2ccc(Cl)cc2)c(=O)c2c(C)noc12` (stereo unspecified) it is 7.77. For the molecule `Cc1noc2c(-c3cncc(F)c3)nn(C(C)c3ccc(Cl)cc3)c(=O)c12` (stereo unspecified), the pEC50 is 5.57. Regarding `COc1ccc(NC(C)=O)cc1-c1nn([C@@H](C)c2ccc(Cl)cc2)c(=O)c2c(C3CC3)noc12`, the negative logarithm of the EC50 (pEC50) is 7.29. Take `COc1ccc(NC(C)=O)cc1-c1nn([C@@H](C)c2ccc(Cl)cc2)c(=O)c2c(C)noc12`: the pEC50 was 7.37.

(Values after ChEMBL document CHEMBL3994670, “Therapeutic Advantage of the Positive Allosteric Modulators of the GABA-B Receptor” (ACS Med Chem Lett, 2017).)
